Experimental findings from patent publication US11278503B2, “Pharmaceutical compositions comprising semifluorinated alkanes for the treatment of contact lense-related conditions” (NOVALIQ GMBH, priority 2017, dated 2022) are described below.

Usually refractive index stands for a measure of how strongly the sample bends light. By density is commonly meant mass per unit of volume.

The data set in a line: Physical properties of the semifluorinated alkanes stated in the description. The conditions noted are these: for refractive index: at 20° C.; for density: at 25° C. Type of data set: physicochemical.

For the molecule `CCCCCC(F)(F)C(F)(F)C(F)(F)C(F)(F)F` [F4H5, 1-perfluorobutyl-pentane], the “chemical and physiological inertness (in words)” value was “chemically and physiologically inert”; the “solubility in water (in words)” value is “water-insoluble”; the refractive index came out at 1.3204; the density was 1.284 g/mL.

As for `CCCCCCCCC(F)(F)C(F)(F)C(F)(F)C(F)(F)C(F)(F)C(F)(F)F` [F6H8, 1-perfluorohexyl-octane], the “chemical and physiological inertness (in words)” value was “chemically and physiologically inert”; the “solubility in water (in words)” value is listed as “water-insoluble”; the refractive index is 1.3432; the density turned out to be 1.35 g/mL.
